From patent publication US20090117089A1, “GLYCOLIPIDS AND ANALOGUES THEREOF AS ANTIGENS FOR NK T CELLS” (The Rockefeller University, priority 2005, published 2009)
“Also recorded” adds a separate entry of the source.

Assays:
[1] = test system: CD1d reactive T cell hybridomas with an invariant Vα14i T cell antigen receptor; assay: 1.2 hybridoma assay (IL-2 release by ELISA); type: cell-based, mouse
Protocol: As a measure of T cell activation, IL-2 release into the tissue culture medium was measured after 16 hours culture by an ELISA assay.
As a measure of T cell activation, IL-2 and IFN-γ release into the tissue culture medium was measured after 16 hours culture by an ELISA assay.

J558 tumor cells = assay: Tumor protection assay, J558 plasmacytoma; type: in vivo, mouse; conditions: for protection from J558 tumor challenge / tumor growth after single agent alone: challenge 14 days later; for tumor growth after single agent alone: glycolipid alone (2 or 0.2 μg/mouse) or irradiated cells alone; for protective immunity to irradiated tumor injected i.v. (adjuvant comparison): vs αCD40 and poly IC
Protocol: 2×10^7 irradiated J558-Ld^− cells, were injected i.v. or s.c. into Balb/c mice with or without α-Gal Cer as a DC maturation stimulus. In some experiments we compared α-Gal Cer to agonistic anti-CD40 mAb (1C10, 25 μg i.p.) or the toll like receptor ligands, poly IC ([…], Invivogen) or lipopolysaccharide (20 μgm, Sigma). The mice had been given CFSE-labeled PICTL CD8^+ T cells i.v. 1 d earlier, or were naive animals. In some experiments, mice were sacrificed 3 d later, and T cell division and activation in spleen were analyzed by flow cytometry. Additionally, 7 d or 2 months later, 5×10^6 live J558 tumor cells were inoculated subcutaneously. 5×10^6 Meth A fibrosarcoma was used as a control tumor for challenge. Tumor cell growth was measured with calipers every other day. Mice were scored positive for tumor as soon as tumors became palpable and grew progressively. Mice were euthanized when tumor size exceeded 400 mm^2.
Mice vaccinated with J558 and α-Gal Cer were injected with ascites containing 1 mg of rat monoclonal anti-CD4 (clone GK 1.5) or anti-CD8 (clone 53-6.72). The mice received three daily injections, the first one i.v. one day before the challenge, and two i.p. injections on the day of the challenge and one day after the challenge. Control mice received 1 mg of Rat IgG (Jackson Laboratories). The depletion was monitored by staining with anti-CD4 and anti-CD8 antibodies followed by flow cytometry (BD PharMingen).
In vivo delivery of dying tumor cells, DC maturation stimuli, and tumor protection assay. Different doses of irradiated J558-Ld− cells were injected i.v. into naïve BALB/c mice either alone or with αGalCer (2 or 0.2 μg/mouse) or 24 (2 or 0.2 μg/mouse) as a DC maturation stimulus. We also compared the glycolipids to agonistic anti-CD40 mAb (1C10, 25 μg, i.p.) or the Toll-like receptor ligands, poly IC (50 μg i.p., Invivogen). 14 d later, 5×10^6 live J558 tumor cells were inoculated s.c. Tumor cell growth was measured with calipers every other day. Mice were scored positive for tumor, as soon as tumors became palpable and grew progressively. Mice were euthanized when tumor size exceeded 400 mm^2.

[2] = test system: serum IFN-γ, IL-12p70 and other cytokines; assay: Serum cytokines (Luminex); type: in vivo, mouse; conditions: for serum IFNγ: 15 hours; for serum IFN-γ, IL-12p70, IL-4, TNF-α and IL-2 response: 2, 6, 12 and 24 h; for serum IFN-γ and IL12p70 release in Jα281−/− mice: i.v. injection
Protocol: Serum cytokines. […] 25 μl of sample was preincubated with serum diluent and incubated for 2 h with Beadmates coated with anti-cytokine mAbs. The fluid was then aspirated and the wells incubated for 1.5 h with biotin-conjugated anti-cytokine mAbs followed by 30 min incubation with Beadlyte streptavidin-PE secondary antibody. Samples were acquired in duplicate by Luminex and analyzed using Beadview software (Upstate).

[3] = test system: spleen CD11c+ cells (DCs and NK cells); assay: Cytokine production by DCs after in vivo glycolipid; parameters: species or system mouse; conditions: for IL-12p40, IL-6 and TNF-α from DCs of primed mice: cultured in the presence of αCD40, ELISA and Luminex, data not shown
Protocol: Cytokine production by DCs. After mice were given αGalCer or Compound 24 i.v., CD11c+ cells were isolated with anti-CD11c magnetic beads and cultured 4 h in the presence of Golgistop (from Cytofix/CytoPerm Plus kit; BD Biosciences). Cells were then stained for surface markers (CD11c and DX-5), permeabilized in 100 μl Cytofix/Cytoperm solution using manufacturer's instructions and stained for intracellular cytokines (IFN-γ and IL-12).

[4] = test system: allogeneic C57B1/6 or syngeneic T cells; assay: Stimulation of the mixed leukocyte reaction (MLR) by DCs; type: cell-based, mouse
Protocol: Stimulation of the mixed leukocyte reaction (MLR) by DCs. Spleen DCs were isolated using anti-CD11c magnetic beads 8 h after administration of αGalCer, 24, or PBS. Graded numbers of spleen DCs from BALB/C mice were irradiated and cultured with 2×10^5 allogeneic C57B1/6 or syngeneic T cells, isolated using anti-CD4 coated magnetic beads (Miltenyi Biotech), in a 96-well flat-bottom plate for 88 h. During the final 16 h, ^3H-thymidine (1 μCi/well) was added.

[5] = test system: human NKT cells (Vα24/Vβ11); assay: Human dendritic cell mediated NKT cell expansion; type: cell-based; parameters: NKT cell expansion (Table 1): unit not given here; conditions: for NKT cell expansion by loaded human DCs: DC to responder ratio 1:10
Excerpt: Human dendritic cell mediated NKT cell expansion. CD14+ monocytes were isolated from PBMC using anti-CD14 magnetic microbeads and cultured in the presence of GM-CSF and IL-4 to generate DCs, followed at day 5-6, by maturation in an inflammatory cytokine cocktail as described herein. To stimulate NKT cells, DCs were pulsed with α-GalCer and the tested analogs, and cultured with CD14− cells at a DC: responder ratio of 1:10. NKT cell expansion was monitored by flow cytometry based on the expression of the invariant NKT cell receptor (Vα24/Vβ11).

[6] = 0.2 μg/mouse with 1×10^7 irradiated J558Ld− tumor cells i.v.
[7] = 2 μg/mouse with 1×10^7 irradiated J558Ld− tumor cells i.v.
[8] = 2 μg or 0.2 μg, 2, 6, 12 h in vivo, intracellular staining

CCCCCCCCCCCCCCCCCCCCCCCCCC(=O)N[C@@H](CO[C@H]1O[C@H](CO)[C@H](O)[C@H](O)[C@H]1O)[C@H](O)[C@H](O)CCCCCCCCCCCCCC [α-GalCer, 2S,3S,4R-1-O(α-galactopyranosyl)-2(N-hexacosanoylamino)-1,3,4-octadecanetriol]
IL-2 release from the hybridomas ([1]; 1 μg/ml, CD1d transfected A20 cells): greatest amount of IL-2 release
IL-2 secretion ([1]; CD1d coated plates, Sphingomonas glycolipids and analogues): greater IL-2 secretion
protection from J558 tumor challenge (J558 tumor cells; [6]): 100%
protection from J558 tumor challenge (J558 tumor cells; [7]): 100%
mice fully protected after transfer of CD11c+ DCs (J558 tumor cells; 1.5×10^6 DCs from donors given dying J558− with α-Gal Cer, 10 of 17 mice): 58%
tumor immunity after depletion of CD4+ or CD8+ T cells (J558 tumor cells; 8 weeks after vaccination with J558 and α-Gal Cer): significantly abrogated tumor immunity
dependence of vaccination on route (J558 tumor cells; J558 and α-Gal Cer, i.v. vs s.c.): effective only when tumor cells were injected by the i.v. and not the s.c. route
specificity of protection (J558 vs Meth A challenge) (J558 tumor cells; dying J558− and α-Gal Cer): protected mice against a challenge of J558 but not Meth A cells
protection against MHC class I positive or negative J558 challenge (J558 tumor cells; dying MHC class I− J558 cells and α-Gal Cer): protected against the MHC class I^+ J558 cells but not to MHC class F J558 tumor cells
tumor immunity in Jα281−/− mice (lack NKT cells) (J558 tumor cells; dying cells plus glycolipid): failed to develop immunity
tumor growth after single agent alone (J558 tumor cells): grew progressively within 7-10 days
duration of tumor immunity (J558 tumor cells; single vaccination with irradiated J558 and α-Gal Cer, challenge 2 and 4 months later): long-lived tumor immunity
therapeutic effect (J558 tumor cells; vaccinated 3 days after injection of live tumor cells): therapeutic response manifest when the tumor dose was 1×10^6 but not 5×10^6 cells
mice protected and tumor-free after J558 challenge (J558 tumor cells; vaccination with irradiated J558− cells combined with α-Gal Cer i.v., 22 of 25 mice): 88%
protective immunity to irradiated tumor injected i.v. (adjuvant comparison) (J558 tumor cells): only adjuvant that could independently induce protective immunity
protective immunity compared with anti-CD40, LPS and poly IC (J558 tumor cells; with irradiated J558− cells): more efficient at inducing protective immunity than the other compounds tested
tumor growth after glycolipid alone (J558 tumor cells; α-Gal Cer alone i.v., challenge 5×10^6 live J558 s.c.): grew progressively within 7-10 days
serum IL-12p70 ([2]; 0.02 μg, 15 h): ~50 pg/mL
serum IFNγ ([2]; 0.02 μg): ~100 pg/mL
serum IFN-γ, IL-12p70, IL-4, TNF-α and IL-2 response ([2]; 2 μg i.v.): induced rapid increases in serum IFN-γ, IL-12p70, IL-4, TNF-α and IL-2 concentrations
serum IFN-γ ([2]; 2 μg i.v., by 6 h): 6000 pg/mL
serum IL-12p70 ([2]; 2 μg i.v., by 6 h): ~600 pg/mL
serum IFN-γ ([2]; 2 μg i.v., by 12 h): ~1200 pg/mL
serum IL-12p70 ([2]; 2 μg i.v., by 12 h): ~200 pg/mL
serum IFN-γ and IL12p70 release in Jα281−/− mice [2]: lacked the ability to release IFN-γ and IL12p70 into the serum
IL-12p40, IL-6 and TNF-α from DCs of primed mice [3]: significant but comparable amounts of IL-12p40, IL-6 and TNF-α
stimulation of allogeneic T cells (allo-MLR) by DCs from treated mice [4]: equally potent stimulators of the allo-MLR
stimulation of syngeneic T cells (syn-MLR) by DCs from treated mice [4]: no stimulatory activity in the syn-MLR
NKT cell expansion by loaded human DCs [5]: efficient inducers of NKT cell expansion in culture
NKT cell expansion (Table 1) ([5]; Donor 1): 3.55
NKT cell expansion (Table 1) ([5]; Donor 2): 2.65
NKT cell expansion (Table 1) ([5]; Donor 3): 1.53
NKT cell expansion (Table 1) ([5]; Donor 4): 3.55

3-O-sulfo-alpha-galactosylceramide [Compound 24]
biological activity in the 1.2 hybridoma assay (IL-2 secretion) [1]: moderately active
protection from J558 tumor challenge (J558 tumor cells; [6]): 100%
protection from J558 tumor challenge (J558 tumor cells; [7]): 100%
mice protected by direct vaccination (J558 tumor cells; dying tumor cells with compound 24): 80-100%
tumor growth after single agent alone (J558 tumor cells): grew progressively within 7-10 days
maturation stimulus compared with ligation of CD40, TLR4 and TLR3 (J558 tumor cells; irradiated tumor cells i.v.): superior relative to other DC stimuli
protective immunity to irradiated tumor injected i.v. (adjuvant comparison) (J558 tumor cells): only adjuvant that could independently induce protective immunity
serum IL-12p70 ([2]; 0.02 μg, 15 h): ~900 pg/mL
serum IFNγ ([2]; 0.02 μg): ~1200 pg/mL
serum IFN-γ, IL-12p70, IL-4, TNF-α and IL-2 response ([2]; 2 μg i.v.): significantly higher at all time points examined
serum IL-12p70 ([2]; 2 μg i.v., by 6 h): ~1000 pg/mL
serum IFN-γ ([2]; 2 μg i.v., by 12 h): ~3000 pg/mL
serum IL-12p70 ([2]; 2 μg i.v., by 12 h): ~900 pg/mL
serum IFN-γ and IL-12p70, 24 vs. αGalCer ([2]; all doses tested, 15 hours after i.v. injection): at least 2.5 fold
serum IFN-γ and IL12p70 release in Jα281−/− mice [2]: lacked the ability to release IFN-γ and IL12p70 into the serum
production of IFN-γ by CD11c+DX5+ NK cells, vs. αGalCer [3, 8]: significantly higher
production of IL-12 by CD11c+DX5− DCs, vs. αGalCer [3, 8]: significantly higher
IL-12p40, IL-6 and TNF-α from DCs of primed mice [3]: significant but comparable amounts of IL-12p40, IL-6 and TNF-α
stimulation of allogeneic T cells (allo-MLR) by DCs from treated mice [4]: equally potent stimulators of the allo-MLR
stimulation of syngeneic T cells (syn-MLR) by DCs from treated mice [4]: no stimulatory activity in the syn-MLR
NKT cell expansion by loaded human DCs [5]: efficiently expanded human NKT cells; also recorded: comparable or higher than expansion mediated by DCs loaded with αGalCer
NKT cell expansion (Table 1) ([5]; Donor 1): 3.19
NKT cell expansion (Table 1) ([5]; Donor 2): 5.95
NKT cell expansion (Table 1) ([5]; Donor 3): 1.51
NKT cell expansion (Table 1) ([5]; Donor 4): 4.95
